Reference: US20080026417A1, “ASSAYS FOR TRICHOMONAL AND OTHER HYDROLASES” (priority 2002, published 2008)
Ends that are not written are not given here. Peptide text beside a SMILES is read from it. * marks the point of attachment. AMC = Cc1cc(=O)oc2cc(N*)ccc12; Cbz = O=C(OCc1ccccc1)*; Boc = CC(C)(C)OC(=O)*

Columns and labels:
trichomonal hydrolases [1] = experiment: Experiment 2: hydrolysis of substrates by trichomonal hydrolases with or without NVS, absorbance 540 nm; type: biochemical, Trichomonas vaginalis; settings: absorbance at 540 nm per method; for Color Scores: Trichomonal hydrolases + NVS: 10% NVS
Description: Substrate solutions containing 8 mM of one of the four substrates (ZRR-MNA, BLRR-AMC, BLKR-AMC, ZKKR-AMC) in one of the two buffers (acetate, TRIS) were prepared by mixing 4 μL 100 mM substrate with 6 μL 6.3 mM L-cysteine, 14 μL 200 mM buffer and 26 μL water. Assays of trichomonal hydrolase activity, with or without the addition of NVS, were performed in 200 μL microwells. In one set of microwells, 10 μL of each substrate/buffer combination was mixed with 10 μL of undiluted trichomonal hydrolases. In a second set of microwells, 10 μL of each substrate/buffer combination was mixed with 10 μL of a mixture of 90% v/v trichomonal hydrolases and 10% NVS. Fifteen minutes later, 50 μL of indicator solution was added to each well. After another fifteen minutes, the absorbance of each solution in the wells was measured on a microtiter plate reader set on 540 nm wavelength.

[2] = system: hydrolases present in whole normal vaginal fluid; experiment: Experiment 2: hydrolysis of substrates by whole normal vaginal fluid, visual color score; type: biochemical, human; parameters: key: 0: Yellow; 1: Peach; 2: Orange; 3: Light to medium pink; 4: Dark pink or red; 5: Fuchsia; 6: Purple; settings: visual 0-6 scale
Description: Due to the partial opacity of cells and other particulate matter in whole vaginal fluid, assays of hydrolase activity present in whole vaginal fluid were performed in 20 μL conical microwells and scored visually. The vaginal fluid from a single normal, uninfected donor was agitated to resuspend the particulate matter, and 2 μL aliquots of the vaginal fluid were mixed with 2 μL of each substrate/buffer combination. To retard evaporation from the wells, water was pipetted into the mini-tray adjacent to the wells prior to replacing the tray cover. Fifteen minutes later, 2 μL of indicator solution was added to each well. After another fifteen minutes, the color in each well was visually scored in 0.5-unit increments using the 0-6 scale presented in Table 2.1.

trichomonal hydrolases [3] = experiment: Experiment 13: hydrolysis of peptide substrates by trichomonal hydrolases at low pH in vaginal fluid supernatant; type: biochemical, Trichomonas vaginalis; parameters: key: −: No red color produced; +: Clearly visible red color produced; ++: Moderately intense red color produced; +++: Very intense red color produced; settings: Fast Garnet
Description: (§1) Forty μL of each substrate was pipetted into duplicate wells of a microtiter plate. The plate was covered with tape, placed into a 25° C. incubator, and allowed to warm. A diluted enzyme mixture was prepared by mixing one part (v/v) freshly-thawed trichomonal hydrolase solution to nine parts 2 mM L-cysteine solution. Forty μL of this mixture was added to one well of each pair of duplicate wells. For negative controls, 40 μL of 2 mM L-cysteine was added to the second well in each pair of duplicate wells. The plate was returned to the incubator and incubated for ten minutes. Forty μL of SDS/acetate solution was added to each well, followed by 40 μL of Fast Garnet solution. The intensity of color that developed in each well after five minutes was visually scored using the color scale presented in Table 13.1.
Of the nine substrates hydrolyzed by trichomonal hydrolases to produce an intense pink color (scoring ++ or +++) in the absence of vaginal fluid supernatant, only four produced intense pink color when vaginal fluid supernatant was present.

trichomonal hydrolases [4] = experiment: Experiment 1: hydrolysis of substrates by trichomonal hydrolases at pH 2.8-9.2, with or without normal vaginal fluid supernatant (NVS), absorbance 540 nm; type: biochemical, Trichomonas vaginalis; settings: for Absorbance Readings: 540 nm
Description: Assays without normal vaginal fluid supernatant present: Two sets of six wells in a microtiter plate were prepared, with each well containing 80 μL of one of the six 200 mM buffers, 10 μL of water and 10 μL of diluted trichomonal hydrolases. Ten μL of ZRR-MNA was added to each well in the first set of wells, and 10 μl of VLK-MNA was added to each well in the second set of wells. After fifteen minutes, 100 μl of indicator solution was added to each well. Because a high pH can reduce the intensity of color produced by the indicator solution, 50 μl of 100 mM acetic acid buffer, pH 3.7, was added to each well except the pH 2.8 wells (water was substituted for the acetic acid in those wells). After another fifteen minutes, the absorbance of the solutions in the wells was measured on a microtiter plate reader set on 540 nm wavelength.
Assays with normal vaginal fluid supernatant (NVS) present: The procedure of the preceding paragraph was followed, except that 10 μL of diluted NVS was added to the wells in place of the 10 μL of water.

trichomonal hydrolases [5] = experiment: Experiment 13: hydrolysis of peptide substrates by trichomonal hydrolases at low pH, no vaginal fluid; type: biochemical, Trichomonas vaginalis; parameters: key: −: No red color produced; +: Clearly visible red color produced; ++: Moderately intense red color produced; +++: Very intense red color produced; settings: without vaginal fluid; threonine buffer pH 2.4; 2 mM substrate solution; 10 min 25° C.; Fast Garnet
Description: as §1

trichomonal hydrolases [6] = experiment: Experiment 8: polypeptide inhibition of trichomonal hydrolases; type: biochemical, Trichomonas vaginalis; parameters: key: 0: Yellow; 1: Peach; 2: Orange; 3: Light to medium pink; 4: Dark pink or red; 5: Fuchsia; 6: Purple; settings: 10 mM polypeptide in substrate solution
Description: (§2) The vaginal fluid was extracted from each swab by centrifugation, and then mixed to resuspend the particulate matter. For each donor, 2 μL of vaginal fluid was pipetted into each of ten microwells, then 2 μL of one of the ten substrate/buffer/polypeptide combinations was added to each well. Additionally, 2 μL of trichomonal hydrolases was mixed with 2 μL of each of the substrate/polypeptide combinations in set of ten wells. After fifteen minutes, 2 μL of indicator solution was added to each well.

[7] = system: non-trichomonal hydrolases present in vaginal fluid; experiment: Experiment 8: polypeptide inhibition of hydrolases in whole vaginal fluid of uninfected women; type: biochemical, human; parameters: key: 0: Yellow; 1: Peach; 2: Orange; 3: Light to medium pink; 4: Dark pink or red; 5: Fuchsia; 6: Purple; settings: ZRR-MNA, 10 mM polypeptide in substrate solution
Description: as §2

[8] = pH 5, Donor A whole vaginal fluid
[9] = pH 5, Donor B whole vaginal fluid
[10] = pH 5, Donor C whole vaginal fluid
[11] = pH 5, Donor D whole vaginal fluid
[12] = pH 8, Donor A whole vaginal fluid
[13] = pH 8, Donor B whole vaginal fluid
[14] = pH 8, Donor C whole vaginal fluid
[15] = pH 8, Donor D whole vaginal fluid

Compound	Color Scores: Trichomonal hydrolases + NVS (trichomonal hydrolases [1]; pH 5 acetate)	Color Scores: Trichomonal hydrolases (trichomonal hydrolases [1]; pH 5 acetate)	Color Scores: Trichomonal hydrolases + NVS (trichomonal hydrolases [1]; pH 8 TRIS)	Color Scores: Trichomonal hydrolases (trichomonal hydrolases [1]; pH 8 TRIS)	Color Scores: Whole normal vaginal fluid ([2]; pH 5 acetate)	Color Scores: Whole normal vaginal fluid ([2]; pH 8 TRIS)	Hydrolase activity color score with polypeptide (trichomonal hydrolases [6]; pH 5, ZRR-MNA)	Hydrolase activity color score with polypeptide (trichomonal hydrolases [6]; pH 8, ZRR-MNA)	Hydrolase activity color score with polypeptide [7, 8]	Hydrolase activity color score with polypeptide [7, 9]	Hydrolase activity color score with polypeptide [7, 10]	Hydrolase activity color score with polypeptide [7, 11]	Hydrolase activity color score with polypeptide [7, 12]	Hydrolase activity color score with polypeptide [7, 13]	Hydrolase activity color score with polypeptide [7, 14]	Hydrolase activity color score with polypeptide [7, 15]	further results
Cc1cc(=O)oc2cc(NC(=O)[C@H](CCCN=C(N)N)NC(=O)[C@H](CCCCN)NC(=O)[C@H](CC(C)C)NC(=O)OC(C)(C)C)ccc12 [BLKR-AMC, BOC-Leu-Lys-Arg-AMC] (Boc-Leu-Lys-Arg-{AMC})	0.123	0.638	0.731	0.649	0.5	6											
Cc1cc(=O)oc2cc(NC(=O)[C@H](CCCN=C(N)N)NC(=O)[C@H](CCCN=C(N)N)NC(=O)[C@H](CC(C)C)NC(=O)OC(C)(C)C)ccc12 [BLRR-AMC, BOC-Leu-Arg-Arg-AMC] (Boc-Leu-Arg-Arg-{AMC})	0.114	0.536	0.568	0.463	0.5	6											
Cc1cc(=O)oc2cc(NC(=O)[C@H](CCCNC(=N)N)NC(=O)[C@H](CCCCN)NC(=O)[C@H](CCCCN)NC(=O)OCc3ccccc3)ccc12 [ZKKR-AMC, CBZ-Lys-Lys-Arg-AMC] (Cbz-Lys-Lys-Arg-{AMC})	0.099	0.225	0.352	0.357	0.5	2											
COc1cc(NC(=O)[C@H](CCCN=C(N)N)NC(=O)[C@H](CCCN=C(N)N)NC(=O)OCc2ccccc2)cc2ccccc12 [ZRR-MNA, CBZ-Arg-Arg-MNA]	0.068	0.420	0.182	0.385	3	4											Color Score (trichomonal hydrolases [3]): +; color production relative to that observed when vaginal fluid was not present (trichomonal hydrolases [4]; pH 8 TRIS buffer, 0.403/0.667): 60%; Absorbance Readings (trichomonal hydrolases [4]; with vaginal fluid supernatant, Acetate pH 5.1): 0.082; Absorbance Readings (trichomonal hydrolases [4]; with vaginal fluid supernatant, Borate pH 9.2): 0.089; Absorbance Readings (trichomonal hydrolases [4]; with vaginal fluid supernatant, Gly-gly pH 2.8): 0.085; Absorbance Readings (trichomonal hydrolases [4]; with vaginal fluid supernatant, HEPES pH 7.5): 0.386; Absorbance Readings (trichomonal hydrolases [4]; with vaginal fluid supernatant, MOPS pH 7.0): 0.313; Absorbance Readings (trichomonal hydrolases [4]; with vaginal fluid supernatant, TRIS pH 8.0): 0.403; Absorbance Readings (trichomonal hydrolases [4]; without vaginal fluid supernatant, Acetate pH 5.1): 0.792; Absorbance Readings (trichomonal hydrolases [4]; without vaginal fluid supernatant, Borate pH 9.2): 0.172; Absorbance Readings (trichomonal hydrolases [4]; without vaginal fluid supernatant, Gly-gly pH 2.8): 0.631; Absorbance Readings (trichomonal hydrolases [4]; without vaginal fluid supernatant, HEPES pH 7.5): 0.738; Absorbance Readings (trichomonal hydrolases [4]; without vaginal fluid supernatant, MOPS pH 7.0): 0.638; Absorbance Readings (trichomonal hydrolases [4]; without vaginal fluid supernatant, TRIS pH 8.0): 0.667; Color Score (trichomonal hydrolases [5]): ++
KPQLWP							3	3	0	0	0	0	0.5	0.5	0	0	
KRQHPG							3	3	2	2	0	2	2.5	2	0.5	2	
RPKPQFFGLM [Arg-Pro-Lys-Pro-Gln-Phe-Phe-Gly-Leu-Met]							1	0.5	0.5	1	0	0.5	0.5	0.5	0	0	
